# Read-outs that look alike come from different tables or passages of the source. Marks after values point to notes of the source that are not given here.
# How the values were obtained:
# [1] = female, Nu/Nu (NU-Foxn1^nu) athymic nude, mouse, in vivo, po, 150 mg/kg, 14 days
# From the text: (§2) The animals used in this study were Nu/Nu (NU-Foxn1^nu) (athymic nude) physiologically normal female mice supplied by Charles River. At the time of inoculation, the age of the animals was 5-8 weeks. Sixty total animals were used and animals were not replaced during the course of this study. Mice were identified with a transponder. The animals were housed in individually ventilated microisolator cages and allowed to acclimate for at least 5-7 days. The animals were maintained under pathogen-free conditions and given Teklad Global Diet® 2920x irradiated pellets for food and autoclaved water ad libitum.
# (§3) Compound ldihydrochloride (2HCl) was provided as a crystalline powder and stored at 2-8° C. protected from light. The administered form of Compound 1 2HCl was a clear solution. For intraperitoneal administration, Compound 1 2HCl was reconstituted in PBS. For oral administration, Compound 1 2HCl was reconstituted in 0.5% Methylcellulose (MC) in water. The salt: base ratio was 1.14:1 (i.e., to obtain 100 mg of Compound 1 free base, 114 mg of Compound 1 dihydrochloride salt was weighed out). Dose levels of Compound 1 were based on the free base, not the salt. Compound 1 2HCl in administered form was prepared fresh immediately prior to use.
# (§4) Animals were randomized using random equilibration of tumor volume into one of six study groups, as shown in Table 22 (Groups 1-6), with 10 animals in each group.
# (§5) Group 1 was administered vehicle control alone (without Compound 1 2HCl) intraperitoneally (IP) three times weekly (TIW) until the end of the study. PBS was used as the vehicle control and was administered at a volume of 10 mL/kg.
# (§6) Groups 2-6 were administered Compound 1 2HCl at a volume of 10 mL/kg three times weekly (TIW) until the end of the study with the doses as described next.
# (§7) Group 2 received 75 mg/kg Compound 1 2HCl via intraperitoneal administration.
# (§8) Group 3 received 75 mg/kg Compound 1 2HCl via oral administration (PO). Group 4 received 100 mg/kg Compound 1 2HCl via oral administration. Group 5 received 125 mg/kg Compound 1 2HCl via oral administration. Group 6 received 150 mg/kg Compound 1 2HCl via oral administration. […]
# (§9) Tumor volume and body weight were measured twice weekly with gross observations daily. […]
# (§10) For data analysis, simple statistics (ANOVA) will be conducted on tumor volumes to verify significance of treatment groups relative to control. Growth curves will be constructed and percent tumor growth inhibition (TGI) will be calculated as a means to assess the effect of the single-agent therapy regimens. […]
# (§11) The Materials and Methods used were the same as discussed above for Example 3, except for the lengths of treatment for Groups 1-4. […] Tumor growth and body weight were measured twice weekly with gross observations daily for Groups 1-5 until Day 117.
# [2] = Solubility / compatibility testing in drinking solution vehicles and ingredients (Example 7); assay type: physicochemical
# From the text: This Example examined drinking solution vehicles for Compound 1 2HCl. Initially Orasweet® Sugar Free options were explored as a vehicle for Compound 1 2HCl.
# ORA-Sweet®, commerically available from Perrigo, comprises purified water, sucrose, glycerine, sorbitol, and flavouring. ORA-Sweet® is buffered with citric acid and sodium phosphate and preserved with methylparaben and potassium sorbate.
# ORA-Sweet® Sugar Free, commerically available from Perrigo, comprises purified water, glycerine, sorbitol, sodium saccharin, xanthan gum, and flavouring. It is buffered with citric acid and sodium citrate and preserved with methylparaben (0.03%), potassium sorbate (0.1%), and propylparaben (0.008%).
# SyrSpend® SF Cherry, commercially available from Fargon, comprises purified water, modified food starch, sodium citrate, citric acid, sucralose, sodium benzoate (<0.1% preservative), sorbic acid, malic acid and simethicone.
# SyrSpend® SF Alka, commercially available from Fargon, comprises modified starch, calcium carbonate and sucralose.
# (§1) ORA-Blend®, commerically available from Perrigo, comprises purified water, sucrose, glycerin, sorbitol, flavoring, microcrystalline cellulose, carboxymethylcellulose sodium, xanthan gum, carrageenan, calcium sulfate, trisodium phosphate, citric acid and sodium phosphate as buffers, dimethicone antifoam emulsion and preserved with methylparaben and potassium sorbate.
# as §1, with “ORA-Plus®,” for “ORA-Blend®,”, “water,” for “water, sucrose, glycerin, sorbitol, flavoring,”
# [3] = in vivo; conditions: female, Nu/Nu (NU-Foxn1^nu) athymic nude, mouse, ip
# From the text: as §2, §3, §4, §5, §6, §7, §8, §9, §10, §11
# [4] = Plasma pharmacokinetics after single oral dose in ORA-Plus or SyrSpend SF (Example 6), LC-MS/MS; assay type: in vivo, Sprague Dawley rats; conditions: for % AUC0-last test vs reference: rats, ratio of group averages; for AUC(0-t) / Cmax / Tmax / AUC(0-inf) / half-life: female, Sprague Dawley, rat, plasma, po
# [5] = Tolerability (body weight, toxicity, maximum tolerated dose) in the Example 5 rat study; assay type: in vivo; conditions: female, Sprague Dawley, rat, in vivo, iv
# Method: Ninety-four total animals were observed thereafter. The parenteral administration is performed by tail vein injection.
# [6] = G5: 2HCl, 24 mg/kg single oral dose, ORA-plus, rat plasma, n = 4
# [7] = G6: 2HCl, 48 mg/kg single oral dose, ORA-plus, rat plasma
# [8] = G12: 2HCl, 24 mg/kg single oral dose, SyrSpend, rat plasma, n = 1
# [9] = G13: 2HCl, 48 mg/kg single oral dose, SyrSpend, n = 2
# [10] = G14: 2HCl, 60 mg/kg single oral dose, SyrSpend, n = 3
# [11] = 24 mg/kg, G5: 2HCl, 24 mg/kg single oral dose, ORA-plus, rat plasma
# [12] = 24 mg/kg, G5: 2HCl, 24 mg/kg single oral dose, ORA-plus, rat plasma, n = 4
# [13] = 24 mg/kg, G12: 2HCl, 24 mg/kg single oral dose, SyrSpend, rat plasma
# [14] = 24 mg/kg, G12: 2HCl, 24 mg/kg single oral dose, SyrSpend, rat plasma, n = 1
# [15] = 48 mg/kg, G6: 2HCl, 48 mg/kg single oral dose, ORA-plus, rat plasma
# [16] = 48 mg/kg, G13: 2HCl, 48 mg/kg single oral dose, SyrSpend
# [17] = 48 mg/kg, G13: 2HCl, 48 mg/kg single oral dose, SyrSpend, n = 2
# [18] = 60 mg/kg, G14: 2HCl, 60 mg/kg single oral dose, SyrSpend
# [19] = 60 mg/kg, G14: 2HCl, 60 mg/kg single oral dose, SyrSpend, n = 3
smiles,measurement,setting,value
CC(C)NCCCn1c(Sc2cc3c(cc2I)OCO3)nc2c(N)ncnc21 [Compound 1 2HCl],Treatment toxicity,[1],stopped on Day 14 due to toxicity
same,solubility,"[2]; 50% Flavor Sweet SF in water, aqueous with cosolvent or surfactant or cyclodextrin, API in 50% Flavor Sweet SF/H2O, read-out: Solubility testing result: Precipitate at",< 5000 µg/mL
same,solubility,"[2]; 50% Versa Free in water, aqueous with cosolvent or surfactant or cyclodextrin, API in 50% Versa Free/H2O, read-out: Solubility testing result: Precipitate at",< 5000 µg/mL
same,solubility,"[2]; Flavor Sweet (sugar free) vehicle, aqueous with cosolvent or surfactant or cyclodextrin, API in Flavor Sweet (sugar free), read-out: Solubility testing result: Precipitate at",< 5000 µg/mL
same,Compatibility with drinking solution vehicle,[2]; Orasweet Sugar Free formulations (contain xanthan gum),incompatibility
same,solubility,"[2]; Versa Free vehicle, aqueous with cosolvent or surfactant or cyclodextrin, API in Versa Free, read-out: Solubility testing result: Precipitate at",< 5000 µg/mL
same,solubility,"[2]; glycerin in 50% water, aqueous with cosolvent or surfactant or cyclodextrin, read-out: Ingredient solubility testing",> 10000 µg/mL
same,solubility,"[2]; glycerin, organic solvent or mixture, read-out: Ingredient solubility testing",> 6000 µg/mL
same,MTD at 103 days,[3],75 mg/kg
same,AUC % Extrap,[4]; [6],5.00 ± 4.92 %
same,Cl_F,[4]; [6],6.14 ± 2.32 L/h/kg
same,Vz_F,[4]; [6],15.12 ± 3.53 L/kg
same,AUC % Extrap,[4]; [7],1.42 ± 0.79%
same,Cl_F,[4]; [7],6.63 ± 2.82 L/h/kg
same,Vz_F,[4]; [7],33.74 ± 16.37 L/kg
same,AUC % Extrap,[4]; [8],0.47^a %
same,Cl_F,[4]; [8],4.17^a L/hr/kg
same,Vz_F,[4]; [8],17.51^a L/kg
same,AUC % Extrap,[4]; [9],6.76 ± 5.82 %
same,Cl_F,[4]; [9],22.85 ± 5.76 L/h/kg
same,Vz_F,[4]; [9],139.42 ± 13.22 L/kg
same,AUC % Extrap,[4]; [10],0.69 ± 0.34 %
same,Vz_F,[4]; [10],27.15 ± 11.86 L/kg
same,% AUC0-last test vs reference,[4]; Group 5 (24 mg/kg 2HCl ORA-plus) vs Group 6 (48 mg/kg 2HCl ORA-plus),53.01%
same,% AUC0-last test vs reference,[4]; Group 5 (24 mg/kg 2HCl ORA-plus) vs Group 12 (24 mg/kg 2HCl SyrSpend),84.12%
same,% AUC0-last test vs reference,[4]; Group 6 (48 mg/kg 2HCl ORA-plus) vs Group 13 (48 mg/kg 2HCl SyrSpend),298.14%
same,% AUC0-last test vs reference,[4]; Group 6 (48 mg/kg 2HCl ORA-plus) vs Group 14 (60 mg/kg 2HCl SyrSpend),62.79%
same,% AUC0-last test vs reference,[4]; Group 12 (24 mg/kg 2HCl SyrSpend) vs Group 13 (48 mg/kg 2HCl SyrSpend),187.87%
same,% AUC0-last test vs reference,[4]; Group 12 (24 mg/kg 2HCl SyrSpend) vs Group 14 (60 mg/kg 2HCl SyrSpend),39.57%
same,% AUC0-last test vs reference,[4]; Group 13 (48 mg/kg 2HCl SyrSpend) vs Group 14 (60 mg/kg 2HCl SyrSpend),21.06%
same,AUC(0-t),[4]; [11],4200 ± 1120 ng·h/mL
same,Cmax,[4]; [11],1070 ± 221 ng/mL
same,Tmax,[4]; [11],2.4 ± 0.89 h
same,AUC(0-inf),[4]; [12],4250 ± 1230 ng·h/mL
same,half-life,[4]; [12],1.8 ± 0.47 h
same,AUC(0-t),[4]; [13],5000 ± 1260 ng·h/mL
same,Cmax,[4]; [13],1030 ± 151 ng/mL
same,Tmax,[4]; [13],3.2 ± 1.1 h
same,AUC(0-inf),[4]; [14],5750 ng·h/mL
same,half-life,[4]; [14],2.91 h
same,AUC(0-inf),[4]; [15],8040 ± 2410 ng·h/mL
same,AUC(0-t),[4]; [15],7930 ± 2380 ng·h/mL
same,Cmax,[4]; [15],1120 ± 429 ng/mL
same,Tmax,[4]; [15],2.8 ± 1.1 h
same,half-life,[4]; [15],3.5 ± 0.53 h
same,AUC(0-t),[4]; [16],2660 ± 946 ng·h/mL
same,Cmax,[4]; [16],1990 ± 787 ng/mL
same,Tmax,[4]; [16],0.7 ± 0.27 h
same,AUC(0-inf),[4]; [17],2170 ± 548 ng·h/mL
same,half-life,[4]; [17],4.42 ± 1.52 h
same,AUC(0-t),[4]; [18],12600 ± 5100 ng·h/mL
same,Cmax,[4]; [18],1710 ± 314 ng/mL
same,Tmax,[4]; [18],2.4 ± 2.07 h
same,AUC(0-inf),[4]; [19],11500 ± 4440 ng·h/mL
same,half-life,[4]; [19],3.2 ± 0.4 h
same,Time point up to which all animals had quantifiable plasma levels,"[4]; single oral dose, ORA-Plus or SyrSpend, data not shown",≥ 8 h
same,MTD,[5],24 mg/kg
